{"source": "ChEMBL document CHEMBL1201862", "about": "“PubChem BioAssay data set” (2004)", "assay_in_all_cases": "NCI anticancer screen, dose series, 48 h", "key": {"NCI-H522": {"tested_on": "NCI-H522"}, "T47D": {"tested_on": "T47D"}, "HCT-15": {"tested_on": "HCT-15"}, "CCRF-CEM": {"tested_on": "CCRF-CEM"}, "Malme-3M": {"tested_on": "Malme-3M"}, "DU-145": {"tested_on": "DU-145"}, "MDA-MB-231": {"tested_on": "MDA-MB-231"}, "SF-268": {"tested_on": "SF-268"}, "CAKI-1": {"tested_on": "CAKI-1"}, "HOP-62": {"tested_on": "HOP-62"}, "SK-MEL-5": {"tested_on": "SK-MEL-5"}, "MDA-MB-435": {"tested_on": "MDA-MB-435"}, "786-0": {"tested_on": "786-0"}, "OVCAR-3": {"tested_on": "OVCAR-3"}, "SN12C": {"tested_on": "SN12C"}, "UACC-62": {"tested_on": "UACC-62"}, "OVCAR-4": {"tested_on": "OVCAR-4"}, "EKVX": {"tested_on": "EKVX"}, "HCC 2998": {"tested_on": "HCC 2998"}, "SNB-19": {"tested_on": "SNB-19"}, "UACC-257": {"tested_on": "UACC-257"}, "SF-295": {"tested_on": "SF-295"}, "TK-10": {"tested_on": "TK-10"}, "ACHN": {"tested_on": "ACHN"}, "MOLT-4": {"tested_on": "MOLT-4"}, "M14": {"tested_on": "M14"}, "KM12": {"tested_on": "KM12"}, "HL-60": {"tested_on": "HL-60"}, "NCI-H226": {"tested_on": "NCI-H226"}, "NCI/ADR-RES": {"tested_on": "NCI/ADR-RES"}, "HT-29": {"tested_on": "HT-29"}, "A549": {"tested_on": "A549"}, "SK-MEL-2": {"tested_on": "SK-MEL-2"}, "OVCAR-8": {"tested_on": "OVCAR-8"}, "SK-OV-3": {"tested_on": "SK-OV-3"}, "SW-620": {"tested_on": "SW-620"}, "COLO 205": {"tested_on": "COLO 205"}, "SK-MEL-28": {"tested_on": "SK-MEL-28"}, "Hs-578T": {"tested_on": "Hs-578T"}, "NCI-H23": {"tested_on": "NCI-H23"}, "PC-3": {"tested_on": "PC-3"}, "MCF7": {"tested_on": "MCF7"}, "HCT-116": {"tested_on": "HCT-116"}, "RPMI-8226": {"tested_on": "RPMI-8226"}, "U-251": {"tested_on": "U-251"}, "LOX IMVI": {"tested_on": "LOX IMVI"}, "A498": {"tested_on": "A498"}, "NCI-H460": {"tested_on": "NCI-H460"}, "SF-539": {"tested_on": "SF-539"}, "SNB-75": {"tested_on": "SNB-75"}, "OVCAR-5": {"tested_on": "OVCAR-5"}, "BT-549": {"tested_on": "BT-549"}, "IGROV-1": {"tested_on": "IGROV-1"}, "HOP-92": {"tested_on": "HOP-92"}}, "note": "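Step 1: Grow cells in 96-well plates. Step 2: Expose to compound for 48 hours at 5 concentrations. Step 3: Interpolate endpoints linearly; if unreached, use highest concentration. GI50 is the concentration that inhibits growth by half.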 Active and inactive are the calls of the source. Rule as the data show it: active = GI50 up to about 1.1 µM and inactive = higher."}
{"smiles": "Nc1nc(Nc2cc(F)c(Cl)c(F)c2)cc(=O)[nH]1", "values": [{"measurement": "GI50", "setting": "NCI-H522", "value": "28.4 µM (inactive)"}, {"measurement": "GI50", "setting": "T47D", "value": "77.6 µM (inactive)"}, {"measurement": "GI50", "setting": "HCT-15", "value": "> 100", "unit": "µM"}, {"measurement": "GI50", "setting": "CCRF-CEM", "value": "66.8 µM (inactive)"}, {"measurement": "GI50", "setting": "Malme-3M", "value": "> 100 µM (inactive)"}, {"measurement": "GI50", "setting": "DU-145", "value": "> 100 µM (inactive)"}, {"measurement": "GI50", "setting": "MDA-MB-231", "value": "68.2 µM (inactive)"}, {"measurement": "GI50", "setting": "SF-268", "value": "74.5 µM (inactive)"}, {"measurement": "GI50", "setting": "CAKI-1", "value": "> 100 µM (inactive)"}, {"measurement": "GI50", "setting": "HOP-62", "value": "> 100 µM (inactive)"}, {"measurement": "GI50", "setting": "SK-MEL-5", "value": "53.5 µM (inactive)"}, {"measurement": "GI50", "setting": "MDA-MB-435", "value": "44.4 µM (inactive)"}, {"measurement": "GI50", "setting": "786-0", "value": "76.4 µM (inactive)"}, {"measurement": "GI50", "setting": "OVCAR-3", "value": "> 100 µM (inactive)"}, {"measurement": "GI50", "setting": "SN12C", "value": "> 100 µM (inactive)"}, {"measurement": "GI50", "setting": "UACC-62", "value": "68.9 µM (inactive)"}, {"measurement": "GI50", "setting": "OVCAR-4", "value": "> 100 µM (inactive)"}, {"measurement": "GI50", "setting": "EKVX", "value": "61.1 µM (inactive)"}, {"measurement": "GI50", "setting": "HCC 2998", "value": "15.9 µM (inactive)"}, {"measurement": "GI50", "setting": "SNB-19", "value": "37 µM (inactive)"}, {"measurement": "GI50", "setting": "UACC-257", "value": "> 100 µM (inactive)"}, {"measurement": "GI50", "setting": "SF-295", "value": "44.9 µM (inactive)"}, {"measurement": "GI50", "setting": "TK-10", "value": "> 100 µM (inactive)"}, {"measurement": "GI50", "setting": "ACHN", "value": "84.7 µM (inactive)"}, {"measurement": "GI50", "setting": "MOLT-4", "value": "55.6 µM (inactive)"}, {"measurement": "GI50", "setting": "M14", "value": "41.5 µM (inactive)"}, {"measurement": "GI50", "setting": "KM12", "value": "27 µM (inactive)"}, {"measurement": "GI50", "setting": "HL-60", "value": "44.3 µM (inactive)"}, {"measurement": "GI50", "setting": "NCI-H226", "value": "> 100 µM (inactive)"}, {"measurement": "GI50", "setting": "NCI/ADR-RES", "value": "> 100 µM (inactive)"}, {"measurement": "GI50", "setting": "HT-29", "value": "> 100 µM (inactive)"}, {"measurement": "GI50", "setting": "A549", "value": "76.4 µM (inactive)"}, {"measurement": "GI50", "setting": "SK-MEL-2", "value": "71.4 µM (inactive)"}, {"measurement": "GI50", "setting": "OVCAR-8", "value": "> 100 µM (inactive)"}, {"measurement": "GI50", "setting": "SK-OV-3", "value": "68.1 µM (inactive)"}, {"measurement": "GI50", "setting": "SW-620", "value": "91 µM (inactive)"}, {"measurement": "GI50", "setting": "COLO 205", "value": "> 100 µM (inactive)"}, {"measurement": "GI50", "setting": "SK-MEL-28", "value": "> 100 µM (inactive)"}, {"measurement": "GI50", "setting": "Hs-578T", "value": "18.1 µM (inactive)"}, {"measurement": "GI50", "setting": "NCI-H23", "value": "95.9 µM (inactive)"}, {"measurement": "GI50", "setting": "PC-3", "value": "> 100 µM (inactive)"}, {"measurement": "GI50", "setting": "MCF7", "value": "75.9 µM (inactive)"}, {"measurement": "GI50", "setting": "HCT-116", "value": "74.3 µM (inactive)"}, {"measurement": "GI50", "setting": "RPMI-8226", "value": "56.4 µM (inactive)"}, {"measurement": "GI50", "setting": "U-251", "value": "81.7 µM (inactive)"}, {"measurement": "GI50", "setting": "LOX IMVI", "value": "> 100 µM (inactive)"}, {"measurement": "GI50", "setting": "A498", "value": "94.8 µM (inactive)"}, {"measurement": "GI50", "setting": "NCI-H460", "value": "> 100 µM (inactive)"}, {"measurement": "GI50", "setting": "SF-539", "value": "> 100 µM (inactive)"}, {"measurement": "GI50", "setting": "SNB-75", "value": "30.7 µM (inactive)"}, {"measurement": "GI50", "setting": "OVCAR-5", "value": "> 100 µM (inactive)"}, {"measurement": "GI50", "setting": "BT-549", "value": "60.3 µM (inactive)"}, {"measurement": "GI50", "setting": "IGROV-1", "value": "> 100 µM (inactive)"}, {"measurement": "GI50", "setting": "HOP-92", "value": "77.3 µM (inactive)"}]}
